Converted amounts (≈) assume the structure as drawn.

What all share (assay type): functional
The subject of test [1] is Streptococcus pneumoniae. The test is described as follows: Antimicrobial activity against erythromycin-resistant Streptococcus pneumoniae AB11 expressing the erm and mef gene by broth microdilution method. Background: Broth dilution looks for growth in wells or tubes with falling amounts of substance.
Test [2] relates to Staphylococcus aureus. Kind of test: Antimicrobial activity against penicillin-susceptible Staphylococcus aureus P1 by broth microdilution method.
Test [3] has as its system Staphylococcus aureus. Kind of test: Antimicrobial activity against erythromycin-susceptible Staphylococcus aureus ATCC 25923 by broth microdilution method.
In test [4] the test system is Streptococcus pneumoniae. Kind of test: Antimicrobial activity against erythromycin-resistant Streptococcus pneumoniae A22072 expressing the mef gene by broth microdilution method.
In test [5] the test system is Streptococcus pneumoniae. The test is described as follows: Antimicrobial activity against erythromycin-susceptible Streptococcus pneumoniae ATCC 49619 by broth microdilution method.
In test [6] the test system is Streptococcus pyogenes. The test is described as follows: Antimicrobial activity against erythromycin-susceptible Streptococcus pyogenes S2 by broth microdilution method.
Test [7] deals with Streptococcus pneumoniae. The test is described as follows: Antimicrobial activity against erythromycin-resistant Streptococcus pneumoniae B1 expressing the erm gene by broth microdilution method.
The test system of test [8] is Streptococcus pyogenes. The test is described as follows: Antimicrobial activity against erythromycin-resistant Streptococcus pyogenes R2 by broth microdilution method.

With `CC[C@H]1OC(=O)[C@H](C)[C@@H](O[C@H]2C[C@@](C)(OC)[C@@H](OC(=O)NCCc3ccc(O)cc3)[C@H](C)O2)[C@H](C)[C@@H](O[C@@H]2O[C@H](C)C[C@H](N(C)C)[C@H]2O)[C@](C)(OC)C[C@@H](C)C(=O)[C@H](C)[C@@H](O)[C@]1(C)O`, the MIC in the test on Streptococcus pneumoniae [1] was found to be 128 µg/mL (≈ 140 µM); in the test on Staphylococcus aureus [2], 16 µg/mL (≈ 17.6 µM); against Staphylococcus aureus [3], 0.25 µg/mL (≈ 0.274 µM); in the test with Streptococcus pneumoniae [4], 4 µg/mL (≈ 4.39 µM); against Streptococcus pneumoniae [5], 0.12 µg/mL (≈ 0.132 µM); against Streptococcus pyogenes [6], 0.03 µg/mL (≈ 0.0329 µM). Further, the minimal inhibitory concentration (MIC) with Streptococcus pneumoniae [7] came to 128 µg/mL (≈ 140 µM); against Streptococcus pyogenes [8], 0.25 µg/mL (≈ 0.274 µM).
In the case of `CC[C@H]1OC(=O)[C@H](C)[C@@H](O[C@H]2C[C@@](C)(OC)[C@@H](OC(=O)NCCc3ccccc3Cl)[C@H](C)O2)[C@H](C)[C@@H](O[C@@H]2O[C@H](C)C[C@H](N(C)C)[C@H]2O)[C@](C)(OC)C[C@@H](C)C(=O)[C@H](C)[C@@H](O)[C@]1(C)O`, the MIC with Streptococcus pneumoniae [1] was 32 µg/mL (≈ 34.4 µM); against Staphylococcus aureus [2], 0.25 µg/mL (≈ 0.269 µM); against Staphylococcus aureus [3], 0.12 µg/mL (≈ 0.129 µM); in the test on Streptococcus pneumoniae [4], 0.5 µg/mL (≈ 0.538 µM); against Streptococcus pneumoniae [5], 0.06 µg/mL (≈ 0.0645 µM); against Streptococcus pyogenes [6] it was 0.03 µg/mL (≈ 0.0323 µM). Besides, the MIC in the test with Streptococcus pneumoniae [7] came out at 16 µg/mL (≈ 17.2 µM); in the test on Streptococcus pyogenes [8] it was 0.5 µg/mL (≈ 0.538 µM).
With `CC[C@H]1OC(=O)[C@H](C)[C@@H](O[C@H]2C[C@@](C)(OC)[C@@H](OC(=O)NCCc3ccc4c(c3)OCO4)[C@H](C)O2)[C@H](C)[C@@H](O[C@@H]2O[C@H](C)C[C@H](N(C)C)[C@H]2O)[C@](C)(OC)C[C@@H](C)C(=O)[C@H](C)[C@@H](O)[C@]1(C)O`, the MIC is 64 µg/mL (≈ 68.1 µM) against Streptococcus pneumoniae [1]; 0.5 µg/mL (≈ 0.532 µM) with Staphylococcus aureus [2]; 0.25 µg/mL (≈ 0.266 µM) against Staphylococcus aureus [3]; 0.25 µg/mL (≈ 0.266 µM) in the test with Streptococcus pneumoniae [4]; 0.06 µg/mL (≈ 0.0639 µM) with Streptococcus pneumoniae [5]; 0.5 µg/mL (≈ 0.532 µM) against Streptococcus pyogenes [6]. Further, the MIC in the test with Streptococcus pneumoniae [7] was determined as 32 µg/mL (≈ 34.1 µM); in the test with Streptococcus pyogenes [8], 0.5 µg/mL (≈ 0.532 µM).
On to `CC[C@H]1OC(=O)[C@H](C)[C@@H](O[C@H]2C[C@@](C)(OC)[C@@H](OC(=O)NCCCC(=O)NCc3ccccc3)[C@H](C)O2)[C@H](C)[C@@H](O[C@@H]2O[C@H](C)C[C@H](N(C)C)[C@H]2O)[C@](C)(OC)C[C@@H](C)C(=O)[C@H](C)[C@@H](O)[C@]1(C)O`, for which the MIC in the test with Streptococcus pneumoniae [1] came out at 0.25 µg/mL (≈ 0.259 µM); in the test on Staphylococcus aureus [2], 4 µg/mL (≈ 4.14 µM); in the test on Staphylococcus aureus [3], 0.12 µg/mL (≈ 0.124 µM); against Streptococcus pneumoniae [4] it was 0.5 µg/mL (≈ 0.517 µM); with Streptococcus pneumoniae [5], 0.03 µg/mL (≈ 0.031 µM); in the test with Streptococcus pyogenes [6], 0.25 µg/mL (≈ 0.259 µM). Further, the MIC was determined as 2 µg/mL (≈ 2.07 µM) against Streptococcus pneumoniae [7] and 64 µg/mL (≈ 66.2 µM) in the test with Streptococcus pyogenes [8].
As to `CC[C@H]1OC(=O)[C@H](C)[C@@H](O[C@H]2C[C@@](C)(OC)[C@@H](OC(=O)NCCCC(=O)NCc3ccc(F)cc3)[C@H](C)O2)[C@H](C)[C@@H](O[C@@H]2O[C@H](C)C[C@H](N(C)C)[C@H]2O)[C@](C)(OC)C[C@@H](C)C(=O)[C@H](C)[C@@H](O)[C@]1(C)O`, the minimal inhibitory concentration (MIC) worked out at 2 µg/mL (≈ 2.03 µM) in the test with Streptococcus pneumoniae [1]; 1 µg/mL (≈ 1.02 µM) in the test on Staphylococcus aureus [2]; 0.12 µg/mL (≈ 0.122 µM) with Staphylococcus aureus [3]; 0.25 µg/mL (≈ 0.254 µM) in the test with Streptococcus pneumoniae [4]; 0.03 µg/mL (≈ 0.0305 µM) in the test on Streptococcus pneumoniae [5]; 0.25 µg/mL (≈ 0.254 µM) in the test with Streptococcus pyogenes [6]. Also, the figures for the MIC in the test with Streptococcus pneumoniae [7] and against Streptococcus pyogenes [8] were 1 µg/mL (≈ 1.02 µM) and 16 µg/mL (≈ 16.3 µM), respectively.
Regarding `CC[C@H]1OC(=O)[C@H](C)[C@@H](O[C@H]2C[C@@](C)(OC)[C@@H](OC(=O)NCCCC(=O)NCc3ccc(OC)cc3)[C@H](C)O2)[C@H](C)[C@@H](O[C@@H]2O[C@H](C)C[C@H](N(C)C)[C@H]2O)[C@](C)(OC)C[C@@H](C)C(=O)[C@H](C)[C@@H](O)[C@]1(C)O`, the minimal inhibitory concentration (MIC) came to 1 µg/mL (≈ 1 µM) against Streptococcus pneumoniae [1]; 8 µg/mL (≈ 8.03 µM) in the test on Staphylococcus aureus [2]; 0.12 µg/mL (≈ 0.12 µM) with Staphylococcus aureus [3]; 0.25 µg/mL (≈ 0.251 µM) against Streptococcus pneumoniae [4]; 0.03 µg/mL (≈ 0.0301 µM) against Streptococcus pneumoniae [5]; 0.03 µg/mL (≈ 0.0301 µM) in the test with Streptococcus pyogenes [6]. Also, the MIC was 0.06 µg/mL (≈ 0.0602 µM) in the test on Streptococcus pneumoniae [7] and 0.5 µg/mL (≈ 0.502 µM) against Streptococcus pyogenes [8].
As for `CC[C@H]1OC(=O)[C@H](C)[C@@H](O[C@H]2C[C@@](C)(OC)[C@@H](OC(=O)NCCCC(=O)NCCc3ccc(O)cc3)[C@H](C)O2)[C@H](C)[C@@H](O[C@@H]2O[C@H](C)C[C@H](N(C)C)[C@H]2O)[C@](C)(OC)C[C@@H](C)C(=O)[C@H](C)[C@@H](O)[C@]1(C)O`, the MIC with Streptococcus pneumoniae [1] turned out to be 1 µg/mL (≈ 1 µM); in the test on Staphylococcus aureus [2] it was 9 µg/mL (≈ 9.03 µM); against Staphylococcus aureus [3], 0.5 µg/mL (≈ 0.502 µM); against Streptococcus pneumoniae [4], 0.5 µg/mL (≈ 0.502 µM); in the test with Streptococcus pneumoniae [5], 0.03 µg/mL (≈ 0.0301 µM); against Streptococcus pyogenes [6] it was 0.5 µg/mL (≈ 0.502 µM). Further, the values for the MIC against Streptococcus pneumoniae [7] and against Streptococcus pyogenes [8] were 0.25 µg/mL (≈ 0.251 µM) and 8 µg/mL (≈ 8.03 µM), respectively.
With `CC[C@H]1OC(=O)[C@H](C)[C@@H](O[C@H]2C[C@@](C)(OC)[C@@H](OC(=O)NCCCC(=O)NCCc3ccccc3Cl)[C@H](C)O2)[C@H](C)[C@@H](O[C@@H]2O[C@H](C)C[C@H](N(C)C)[C@H]2O)[C@](C)(OC)C[C@@H](C)C(=O)[C@H](C)[C@@H](O)[C@]1(C)O`, the MIC was 32 µg/mL (≈ 31.5 µM) with Streptococcus pneumoniae [1]; 32 µg/mL (≈ 31.5 µM) in the test with Staphylococcus aureus [2]; 0.25 µg/mL (≈ 0.246 µM) with Staphylococcus aureus [3]; 1 µg/mL (≈ 0.986 µM) in the test with Streptococcus pneumoniae [4]; 0.03 µg/mL (≈ 0.0296 µM) against Streptococcus pneumoniae [5]; 0.03 µg/mL (≈ 0.0296 µM) against Streptococcus pyogenes [6]. Moreover, the MIC in the test with Streptococcus pneumoniae [7] was 32 µg/mL (≈ 31.5 µM); in the test on Streptococcus pyogenes [8] it was 1 µg/mL (≈ 0.986 µM).
In the case of `CCCNC(=O)O[C@H]1[C@H](C)O[C@@H](O[C@H]2[C@H](C)[C@@H](O[C@@H]3O[C@H](C)C[C@H](N(C)C)[C@H]3O)[C@](C)(OC)C[C@@H](C)C(=O)[C@H](C)[C@@H](O)[C@](C)(O)[C@@H](CC)OC(=O)[C@@H]2C)C[C@@]1(C)OC`, the MIC in the test on Streptococcus pneumoniae [1] came to 32 µg/mL (≈ 38.4 µM); against Staphylococcus aureus [2], 16 µg/mL (≈ 19.2 µM); against Staphylococcus aureus [3], 0.25 µg/mL (≈ 0.3 µM); against Streptococcus pneumoniae [4], 2 µg/mL (≈ 2.4 µM); in the test on Streptococcus pneumoniae [5] it was 0.25 µg/mL (≈ 0.3 µM); with Streptococcus pyogenes [6], 0.5 µg/mL (≈ 0.6 µM). In addition, the MIC turned out to be 64 µg/mL (≈ 76.8 µM) in the test with Streptococcus pneumoniae [7] and 1 µg/mL (≈ 1.2 µM) against Streptococcus pyogenes [8].
Consider `CCCCNC(=O)O[C@H]1[C@H](C)O[C@@H](O[C@H]2[C@H](C)[C@@H](O[C@@H]3O[C@H](C)C[C@H](N(C)C)[C@H]3O)[C@](C)(OC)C[C@@H](C)C(=O)[C@H](C)[C@@H](O)[C@](C)(O)[C@@H](CC)OC(=O)[C@@H]2C)C[C@@]1(C)OC`, for which the MIC in the test with Streptococcus pneumoniae [1] stood at 64 µg/mL (≈ 75.6 µM); against Staphylococcus aureus [2], 8 µg/mL (≈ 9.44 µM); in the test with Staphylococcus aureus [3], 0.25 µg/mL (≈ 0.295 µM); in the test with Streptococcus pneumoniae [4] it was 1 µg/mL (≈ 1.18 µM); against Streptococcus pneumoniae [5], 0.25 µg/mL (≈ 0.295 µM); against Streptococcus pyogenes [6], 0.25 µg/mL (≈ 0.295 µM). The MIC with Streptococcus pneumoniae [7] is 64 µg/mL (≈ 75.6 µM); in the test with Streptococcus pyogenes [8], 4 µg/mL (≈ 4.72 µM).
Consider `CCCCCNC(=O)O[C@H]1[C@H](C)O[C@@H](O[C@H]2[C@H](C)[C@@H](O[C@@H]3O[C@H](C)C[C@H](N(C)C)[C@H]3O)[C@](C)(OC)C[C@@H](C)C(=O)[C@H](C)[C@@H](O)[C@](C)(O)[C@@H](CC)OC(=O)[C@@H]2C)C[C@@]1(C)OC`, for which the MIC with Streptococcus pneumoniae [1] worked out at 128 µg/mL (≈ 149 µM); against Staphylococcus aureus [2], 16 µg/mL (≈ 18.6 µM); against Staphylococcus aureus [3], 0.25 µg/mL (≈ 0.29 µM); in the test on Streptococcus pneumoniae [4], 0.25 µg/mL (≈ 0.29 µM); in the test on Streptococcus pneumoniae [5], 0.06 µg/mL (≈ 0.0697 µM); in the test on Streptococcus pyogenes [6] it was 0.03 µg/mL (≈ 0.0348 µM). In addition, the figures for the minimal inhibitory concentration (MIC) in the test on Streptococcus pneumoniae [7] and in the test on Streptococcus pyogenes [8] were 32 µg/mL (≈ 37.2 µM) and 0.12 µg/mL (≈ 0.139 µM), respectively.
Take `CC[C@H]1OC(=O)[C@H](C)[C@@H](O[C@H]2C[C@@](C)(OC)[C@@H](OC(=O)NCCCC(=O)NC3CCCCC3)[C@H](C)O2)[C@H](C)[C@@H](O[C@@H]2O[C@H](C)C[C@H](N(C)C)[C@H]2O)[C@](C)(OC)C[C@@H](C)C(=O)[C@H](C)[C@@H](O)[C@]1(C)O`: the MIC in the test on Streptococcus pneumoniae [1] is 64 µg/mL (≈ 66.8 µM); against Staphylococcus aureus [2], 8 µg/mL (≈ 8.35 µM); against Staphylococcus aureus [3] it was 0.5 µg/mL (≈ 0.522 µM); against Streptococcus pneumoniae [4], 2 µg/mL (≈ 2.09 µM); against Streptococcus pneumoniae [5], 0.03 µg/mL (≈ 0.0313 µM); with Streptococcus pyogenes [6] it was 0.25 µg/mL (≈ 0.261 µM). The results for the MIC against Streptococcus pneumoniae [7] and against Streptococcus pyogenes [8] were 32 µg/mL (≈ 33.4 µM) and 8 µg/mL (≈ 8.35 µM), respectively.

The term MIC denotes the lowest concentration found to suppress growth.

The values above are taken from ChEMBL document CHEMBL1667745, “Synthesis and antibacterial evaluation of novel clarithromycin derivatives with C-4″ elongated arylalkyl groups against macrolide-resistant strains” (2011).
